The target in test [1] is Serine/threonine-protein kinase OSR1 (Homo sapiens) (UniProt O95747). The experiment in a line: Inhibition of OSR1 (unknown origin) at 10 uM after 120 mins P33 radiolabeled kinase activity assay.
Test [2] deals with Phosphorylase b kinase gamma catalytic chain, skeletal muscle/heart isoform (Homo sapiens) (UniProt Q16816). The test is described as follows: Inhibition of PHKgamma1 (unknown origin) at 10 uM after 120 mins P33 radiolabeled kinase activity assay.
The target of test [3] is Platelet-derived growth factor receptor beta (Homo sapiens) (UniProt P09619). The test is described as follows: Inhibition of PDGFRbeta (unknown origin) at 10 uM after 120 mins P33 radiolabeled kinase activity assay.
In test [4] the target is T1, Serine/threonine-protein kinase D3 (Homo sapiens) (UniProt O94806).
T1 sequence (whole entry): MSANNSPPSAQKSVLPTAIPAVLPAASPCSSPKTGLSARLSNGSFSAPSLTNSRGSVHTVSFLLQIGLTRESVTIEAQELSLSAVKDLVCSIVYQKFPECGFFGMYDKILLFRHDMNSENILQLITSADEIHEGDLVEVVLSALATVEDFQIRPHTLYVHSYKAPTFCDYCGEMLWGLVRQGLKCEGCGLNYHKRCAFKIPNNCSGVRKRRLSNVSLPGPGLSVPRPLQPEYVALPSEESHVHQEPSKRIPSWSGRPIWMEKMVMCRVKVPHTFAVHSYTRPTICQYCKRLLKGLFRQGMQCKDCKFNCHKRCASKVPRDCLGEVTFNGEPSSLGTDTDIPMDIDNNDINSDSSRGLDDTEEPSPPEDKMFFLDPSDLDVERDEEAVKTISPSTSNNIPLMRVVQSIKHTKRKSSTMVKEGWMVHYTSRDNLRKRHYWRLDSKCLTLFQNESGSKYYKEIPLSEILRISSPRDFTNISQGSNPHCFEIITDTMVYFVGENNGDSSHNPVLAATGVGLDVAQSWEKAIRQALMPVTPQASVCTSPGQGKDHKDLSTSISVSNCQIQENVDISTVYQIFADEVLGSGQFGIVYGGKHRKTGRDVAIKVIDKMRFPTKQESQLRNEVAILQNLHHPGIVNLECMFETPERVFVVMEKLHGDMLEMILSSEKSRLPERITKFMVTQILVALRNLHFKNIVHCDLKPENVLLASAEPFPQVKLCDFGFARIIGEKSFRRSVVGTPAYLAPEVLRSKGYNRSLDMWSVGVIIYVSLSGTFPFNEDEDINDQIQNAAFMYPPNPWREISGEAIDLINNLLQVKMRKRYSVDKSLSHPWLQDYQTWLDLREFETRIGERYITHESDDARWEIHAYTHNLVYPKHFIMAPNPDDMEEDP
The experiment in a line: Inhibition of PKCnu (unknown origin) at 10 uM after 120 mins P33 radiolabeled kinase activity assay.

Test [5] has as its target Mitogen-activated protein kinase kinase kinase kinase 1 (Homo sapiens) (UniProt Q92918). The test is described as follows: Inhibition of HPK1 (unknown origin) at 10 uM after 120 mins P33 radiolabeled kinase activity assay.
Test [6] has as its target Tyrosine-protein kinase Blk (Homo sapiens) (UniProt P51451). The experiment in a line: Inhibition of BLK (unknown origin) at 10 uM after 120 mins P33 radiolabeled kinase activity assay.
Test [7] addresses Cyclin-dependent kinase 7/ cyclin H (Homo sapiens) (UniProt P51946+P50613). The test is described as follows: Inhibition of CDK7/cyclin H (unknown origin) at 10 uM after 120 mins P33 radiolabeled kinase activity assay. It counts as protein-complex assay.
For test [8], the target named is CDK6/cyclin D3 (Homo sapiens) (UniProt P30281+Q00534). The experiment in a line: Inhibition of CDK6/cyclin D3 (unknown origin) at 10 uM after 120 mins P33 radiolabeled kinase activity assay. The class given is protein-complex assay.
The target of test [9] is T2, Mitogen-activated protein kinase 15 (Homo sapiens) (UniProt Q8TD08).
T2 sequence (whole entry): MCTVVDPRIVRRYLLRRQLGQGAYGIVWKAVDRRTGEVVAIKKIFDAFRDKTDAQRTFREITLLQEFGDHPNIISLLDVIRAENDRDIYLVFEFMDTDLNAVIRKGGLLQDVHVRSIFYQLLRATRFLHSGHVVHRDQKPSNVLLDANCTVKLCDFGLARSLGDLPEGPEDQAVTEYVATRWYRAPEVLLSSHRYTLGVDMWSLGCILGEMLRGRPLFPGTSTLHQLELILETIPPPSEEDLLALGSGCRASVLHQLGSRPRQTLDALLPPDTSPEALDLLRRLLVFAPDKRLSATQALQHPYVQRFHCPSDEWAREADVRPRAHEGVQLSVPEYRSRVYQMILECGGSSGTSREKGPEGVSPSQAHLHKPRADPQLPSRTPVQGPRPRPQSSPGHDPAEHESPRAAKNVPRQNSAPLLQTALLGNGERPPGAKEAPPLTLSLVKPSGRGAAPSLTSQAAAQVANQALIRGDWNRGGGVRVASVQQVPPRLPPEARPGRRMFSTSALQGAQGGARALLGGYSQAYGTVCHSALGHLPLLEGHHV
The experiment in a line: Inhibition of ERK7 (unknown origin) at 10 uM after 120 mins P33 radiolabeled kinase activity assay.

Inhibition data for three molecules are collected here from ChEMBL document CHEMBL3627608, “Crystal structures of human RIP2 kinase catalytic domain complexed with ATP-competitive inhibitors: Foundations for understanding inhibitor selectivity” (Bioorg Med Chem, 2015).

Molecules are shown by their SMILES.

Chain of Serine/threonine-protein kinase OSR1 (Homo sapiens) (O95747 2-527 limits assumed): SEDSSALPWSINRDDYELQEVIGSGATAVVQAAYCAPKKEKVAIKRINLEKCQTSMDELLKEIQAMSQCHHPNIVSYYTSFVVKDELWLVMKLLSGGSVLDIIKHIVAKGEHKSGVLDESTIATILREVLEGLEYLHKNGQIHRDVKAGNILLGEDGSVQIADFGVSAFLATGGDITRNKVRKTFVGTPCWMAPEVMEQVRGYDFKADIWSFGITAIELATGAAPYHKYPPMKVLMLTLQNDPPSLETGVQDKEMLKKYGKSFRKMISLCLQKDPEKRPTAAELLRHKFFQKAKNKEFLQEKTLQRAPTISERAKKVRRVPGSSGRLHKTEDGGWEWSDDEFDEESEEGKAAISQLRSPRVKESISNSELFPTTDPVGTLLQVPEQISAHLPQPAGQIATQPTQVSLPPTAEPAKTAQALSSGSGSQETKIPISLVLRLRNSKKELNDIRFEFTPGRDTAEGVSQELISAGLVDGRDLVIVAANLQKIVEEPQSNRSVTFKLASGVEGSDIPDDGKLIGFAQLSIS
Chain of Platelet-derived growth factor receptor beta (Homo sapiens) (P09619 whole entry): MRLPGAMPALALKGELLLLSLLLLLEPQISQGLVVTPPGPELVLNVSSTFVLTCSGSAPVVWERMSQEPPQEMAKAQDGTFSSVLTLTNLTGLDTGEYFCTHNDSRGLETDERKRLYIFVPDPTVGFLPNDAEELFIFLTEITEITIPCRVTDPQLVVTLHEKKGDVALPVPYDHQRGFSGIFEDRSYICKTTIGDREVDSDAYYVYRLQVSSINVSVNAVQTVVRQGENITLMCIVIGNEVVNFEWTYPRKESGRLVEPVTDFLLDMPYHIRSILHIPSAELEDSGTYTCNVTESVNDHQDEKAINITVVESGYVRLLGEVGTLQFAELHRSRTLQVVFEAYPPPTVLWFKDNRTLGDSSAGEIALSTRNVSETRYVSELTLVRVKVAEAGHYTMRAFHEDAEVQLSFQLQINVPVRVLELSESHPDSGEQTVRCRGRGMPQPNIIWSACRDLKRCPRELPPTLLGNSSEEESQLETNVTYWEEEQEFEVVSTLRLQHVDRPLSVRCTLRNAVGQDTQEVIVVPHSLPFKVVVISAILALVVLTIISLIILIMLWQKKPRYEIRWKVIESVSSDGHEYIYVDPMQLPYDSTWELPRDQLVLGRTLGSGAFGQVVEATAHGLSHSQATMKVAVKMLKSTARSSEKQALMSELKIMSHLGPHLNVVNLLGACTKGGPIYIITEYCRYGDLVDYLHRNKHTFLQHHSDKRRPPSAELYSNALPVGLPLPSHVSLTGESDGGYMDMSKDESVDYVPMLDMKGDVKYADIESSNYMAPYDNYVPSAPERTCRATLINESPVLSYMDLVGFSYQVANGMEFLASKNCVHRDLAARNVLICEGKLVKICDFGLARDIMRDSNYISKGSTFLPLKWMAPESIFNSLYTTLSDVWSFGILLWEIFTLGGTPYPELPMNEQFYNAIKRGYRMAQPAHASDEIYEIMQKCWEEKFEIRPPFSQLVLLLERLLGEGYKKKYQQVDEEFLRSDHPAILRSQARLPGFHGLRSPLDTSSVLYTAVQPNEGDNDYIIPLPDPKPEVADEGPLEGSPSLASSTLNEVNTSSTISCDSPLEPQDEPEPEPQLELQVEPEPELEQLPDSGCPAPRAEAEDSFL
Chain of Mitogen-activated protein kinase kinase kinase kinase 1 (Homo sapiens) (Q92918 whole entry, looked up): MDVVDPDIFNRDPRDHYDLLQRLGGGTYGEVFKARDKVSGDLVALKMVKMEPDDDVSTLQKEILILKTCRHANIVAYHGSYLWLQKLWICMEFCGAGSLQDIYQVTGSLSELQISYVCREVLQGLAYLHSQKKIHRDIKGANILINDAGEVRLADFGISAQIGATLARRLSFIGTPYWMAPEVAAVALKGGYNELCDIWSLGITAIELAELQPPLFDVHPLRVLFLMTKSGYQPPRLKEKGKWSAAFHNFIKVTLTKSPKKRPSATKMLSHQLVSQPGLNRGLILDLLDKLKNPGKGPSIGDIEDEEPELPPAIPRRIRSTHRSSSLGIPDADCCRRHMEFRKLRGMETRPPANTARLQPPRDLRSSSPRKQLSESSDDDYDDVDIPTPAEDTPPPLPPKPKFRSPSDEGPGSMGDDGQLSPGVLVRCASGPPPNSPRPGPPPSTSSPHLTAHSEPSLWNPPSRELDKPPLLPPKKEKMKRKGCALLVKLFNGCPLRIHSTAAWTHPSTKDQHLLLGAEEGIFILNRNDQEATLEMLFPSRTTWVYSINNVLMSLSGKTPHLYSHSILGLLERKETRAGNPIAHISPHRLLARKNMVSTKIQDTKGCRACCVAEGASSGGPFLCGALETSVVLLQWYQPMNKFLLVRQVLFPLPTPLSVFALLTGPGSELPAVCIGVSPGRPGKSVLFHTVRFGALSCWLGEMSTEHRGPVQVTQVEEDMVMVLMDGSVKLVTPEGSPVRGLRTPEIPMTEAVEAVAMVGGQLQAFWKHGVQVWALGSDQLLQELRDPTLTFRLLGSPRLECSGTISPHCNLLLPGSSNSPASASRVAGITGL
Chain of Tyrosine-protein kinase Blk (Homo sapiens) (P51451 2-505 limits assumed): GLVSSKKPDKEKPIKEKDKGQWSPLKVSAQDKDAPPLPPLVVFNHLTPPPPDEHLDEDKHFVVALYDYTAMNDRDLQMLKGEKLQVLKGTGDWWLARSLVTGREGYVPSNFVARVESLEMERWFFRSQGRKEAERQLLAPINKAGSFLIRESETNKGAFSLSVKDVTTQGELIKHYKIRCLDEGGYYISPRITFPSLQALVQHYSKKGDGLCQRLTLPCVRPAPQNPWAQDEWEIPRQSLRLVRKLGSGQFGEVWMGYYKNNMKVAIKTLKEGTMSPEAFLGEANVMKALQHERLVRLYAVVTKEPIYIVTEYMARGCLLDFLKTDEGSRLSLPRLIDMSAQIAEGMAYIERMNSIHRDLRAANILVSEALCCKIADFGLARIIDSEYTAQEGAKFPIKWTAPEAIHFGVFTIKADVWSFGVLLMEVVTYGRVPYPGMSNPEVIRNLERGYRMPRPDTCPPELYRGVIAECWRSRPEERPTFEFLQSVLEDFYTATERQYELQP
Chain of Phosphorylase b kinase gamma catalytic chain, skeletal muscle/heart isoform (Homo sapiens) (Q16816 whole entry, looked up, canonical isoform): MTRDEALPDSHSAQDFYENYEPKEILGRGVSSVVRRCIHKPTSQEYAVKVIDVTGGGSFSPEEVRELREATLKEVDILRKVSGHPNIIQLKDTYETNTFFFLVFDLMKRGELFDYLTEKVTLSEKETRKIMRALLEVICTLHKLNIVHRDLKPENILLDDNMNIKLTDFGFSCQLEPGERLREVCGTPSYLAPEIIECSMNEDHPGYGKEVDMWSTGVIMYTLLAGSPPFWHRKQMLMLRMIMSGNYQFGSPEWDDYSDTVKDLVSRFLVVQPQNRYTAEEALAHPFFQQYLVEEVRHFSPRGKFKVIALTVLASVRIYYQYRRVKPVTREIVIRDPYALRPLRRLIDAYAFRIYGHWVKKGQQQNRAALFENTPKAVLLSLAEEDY

The inhibition is the drop in the measured response relative to a control, in per cent. In the case of `CS(=O)(=O)c1cccc(Nc2nccc(-c3sc(N4CCOCC4)nc3-c3cccc(NS(=O)(=O)c4c(F)cccc4F)c3)n2)c1`, the inhibition in [1] is 10.1%; in [2], 8.44%; in test [3], 91%; in test [4], 99.9%; in [5], 31.9%; in test [6], 99.4%. Also, the figures for the inhibition in test [7], in [8] and in test [9] were 16.1%, 83.8% and 87%, respectively.

Regarding `CC(C)(C)c1cc(NC(=O)Nc2ccc(Oc3ccncc3)cc2)no1`, the inhibition in test [1] was found to be 22.6%; in test [2] it was 55.9%; in [3] it was 99.5%; in test [4], 11.4%; in test [5], 57.6%; in [6], 65.8%. The inhibition was 0.59% in test [7], 43.8% in test [8] and 99.8% in [9].

Consider `COCCNC(=O)c1ccc2c(c1)nc(-c1cnc(-c3ccc(Cl)cc3)[nH]1)n2CCOC`, for which the inhibition was 3.1% in [1]; 10.5% in [2]; 11.1% in [3]; 9.76% in test [4]; -3.48% in test [5]; 34.2% in [6]. Besides, the inhibition was 2.11% in [7], 5.8% in test [8] and 0.89% in [9].
